Active and inactive are the calls of the source. No cut-off for these calls is given here.

This passage reports FDI and Activity results from ChEMBL document CHEMBL3046774, “Synthesis and insect antifeedant activity of precocene derivatives with lactone moiety” (2005).

Experiment [1] relates to Leptinotarsa decemlineata. Put plainly: Antifeeding activity against Leptinotarsa decemlineata larvaes in compound treated wheat wafer disk assessed as total coefficient of deterrence by feeding deterrent activity test. The experiment is classed as functional.
The test system of another experiment is Aphididae. Put plainly: Antifeeding activity against Aphididae (aphids) in compound treated chinese cabbage leaves assessed as settled aphids measured up to 24 hr. The experiment is classed as functional, organism-based.
Experiment [2] concerns Tribolium confusum. Put plainly: Antifeeding activity against Tribolium confusum (confused flour beetle) larvaes in compound treated wheat wafer disk assessed as relative coefficient of deterrence by feeding deterrent activity test. The experiment is classed as functional.
Experiment [3] deals with Tribolium confusum. As to the kind of experiment: Antifeeding activity against Tribolium confusum (confused flour beetle) adults in compound treated wheat wafer disk assessed as absolute coefficient of deterrence by feeding deterrent activity test. The experiment is classed as functional.
The test system of experiment [4] is Leptinotarsa decemlineata. As to the kind of experiment: Antifeeding activity against Leptinotarsa decemlineata adults in compound treated wheat wafer disk assessed as absolute coefficient of deterrence by feeding deterrent activity test. The experiment is classed as functional.
Experiment [5] concerns Trogoderma granarium. As to the kind of experiment: Antifeeding activity against Trogoderma granarium (khapra beetle) larvaes in compound treated wheat wafer disk assessed as relative coefficient of deterrence by feeding deterrent activity test. It counts as functional.
Experiment [6] concerns Sitophilus granarius. As to the kind of experiment: Antifeeding activity against Sitophilus granarius (granary weevil) adults in compound treated wheat wafer disk assessed as total coefficient of deterrence by feeding deterrent activity test. The experiment is classed as functional.
For experiment [7], the system named is Leptinotarsa decemlineata. As to the kind of experiment: Antifeeding activity against Leptinotarsa decemlineata adults in compound treated wheat wafer disk assessed as relative coefficient of deterrence by feeding deterrent activity test. The experiment is classed as functional.
Experiment [8] deals with Leptinotarsa decemlineata. As to the kind of experiment: Antifeeding activity against Leptinotarsa decemlineata larvaes in compound treated wheat wafer disk assessed as absolute coefficient of deterrence by feeding deterrent activity test. It counts as functional.
In experiment [9] the test system is Sitophilus granarius. As to the kind of experiment: Antifeeding activity against Sitophilus granarius (granary weevil) adults in compound treated wheat wafer disk assessed as relative coefficient of deterrence by feeding deterrent activity test. The experiment is classed as functional.
Experiment [10] relates to Leptinotarsa decemlineata. Put plainly: Antifeeding activity against Leptinotarsa decemlineata adults in compound treated wheat wafer disk assessed as total coefficient of deterrence by feeding deterrent activity test. It counts as functional.
The test system of experiment [11] is Tribolium confusum. Put plainly: Antifeeding activity against Tribolium confusum (confused flour beetle) adults in compound treated wheat wafer disk assessed as relative coefficient of deterrence by feeding deterrent activity test. The experiment is classed as functional.
The subject of experiment [12] is Trogoderma granarium. Put plainly: Antifeeding activity against Trogoderma granarium (khapra beetle ) larvaes in compound treated wheat wafer disk assessed as absolute coefficient of deterrence by feeding deterrent activity test. It counts as functional.
Experiment [13] has as its system Trogoderma granarium. Put plainly: Antifeeding activity against Trogoderma granarium (khapra beetle) larvaes in compound treated wheat wafer disk assessed as total coefficient of deterrence by feeding deterrent activity test. It counts as functional.
In experiment [14] the test system is Tribolium confusum. As to the kind of experiment: Antifeeding activity against Tribolium confusum (confused flour beetle) larvaes in compound treated wheat wafer disk assessed as total coefficient of deterrence by feeding deterrent activity test. The experiment is classed as functional.
In experiment [15] the test system is Tribolium confusum. Put plainly: Antifeeding activity against Tribolium confusum (confused flour beetle) larvaes in compound treated wheat wafer disk assessed as absolute coefficient of deterrence by feeding deterrent activity test. The experiment is classed as functional.
The test system of experiment [16] is Tribolium confusum. As to the kind of experiment: Antifeeding activity against Tribolium confusum (confused flour beetle) adults in compound treated wheat wafer disk assessed as total coefficient of deterrence by feeding deterrent activity test. It counts as functional.
Experiment [17] has as its system Leptinotarsa decemlineata. As to the kind of experiment: Antifeeding activity against Leptinotarsa decemlineata larvaes in compound treated wheat wafer disk assessed as relative coefficient of deterrence by feeding deterrent activity test. The experiment is classed as functional.
The subject of experiment [18] is Sitophilus granarius. Put plainly: Antifeeding activity against Sitophilus granarius (granary weevil) adults in compound treated wheat wafer disk assessed as absolute coefficient of deterrence by feeding deterrent activity test. It counts as functional.

As to `COc1cc2c(cc1OC)[C@@H]1OC(=O)C[C@]1(I)C(C)(C)O2` (racemic), the FDI in experiment [1] came out at 132; with Tribolium confusum [2], 93.6; in the experiment with Tribolium confusum [3] it was 3.9; in experiment [4] it was 87.1; with Trogoderma granarium [5], 80.5; in the experiment with Sitophilus granarius [6], 93.4. In addition, the FDI in [7] is on record as 89.1; in experiment [8] it was 41.4; with Sitophilus granarius [9], 89.5; in experiment [10] it was 176.2; in the experiment with Tribolium confusum [11] it was 89.5; in the experiment with Trogoderma granarium [12], 39.6. Also, the FDI in the experiment on Trogoderma granarium [13] was determined as 120.1; in the experiment with Tribolium confusum [14] it was 147.8; with Tribolium confusum [15] it was 54.2; in the experiment on Tribolium confusum [16], 93.4; in experiment [17], 90.6; with Sitophilus granarius [18], 3.9. Besides, in the experiment with Aphididae, the outcome was inactive.

For the compound `COc1cc2c(cc1OC)OC(C)(C)C(CC(=O)O)=C2`, the FDI was found to be 96.3 in experiment [1]; 73.1 in the experiment on Tribolium confusum [2]; 15 in the experiment on Tribolium confusum [3]; 34.4 in experiment [4]; 85.5 in the experiment on Trogoderma granarium [5]; 103.9 in the experiment with Sitophilus granarius [6]. The FDI stood at 63.7 in experiment [7]; 17.2 in [8]; 88.9 in the experiment on Sitophilus granarius [9]; 98.1 in experiment [10]; 88.9 with Tribolium confusum [11]; 11.9 in the experiment with Trogoderma granarium [12]. The FDI in the experiment on Trogoderma granarium [13] was determined as 97.4; with Tribolium confusum [14], 113.6; with Tribolium confusum [15], 40.5; in the experiment with Tribolium confusum [16], 103.9; in experiment [17] it was 79.1; with Sitophilus granarius [18], 15. For the same compound, the result in the experiment on Aphididae was inactive.

Regarding `COc1cc2c(cc1OC)C1=C(CC(=O)O1)C(C)(C)O2`, the FDI is 95.2 in experiment [1]; 90.7 in the experiment with Tribolium confusum [2]; 14.2 in the experiment on Tribolium confusum [3]; 19.7 in experiment [4]; 85 in the experiment on Trogoderma granarium [5]; 105.8 with Sitophilus granarius [6]. Further, the FDI is listed as 29.9 in [7]; 32.7 in [8]; 91.6 in the experiment on Sitophilus granarius [9]; 49.6 in experiment [10]; 91.6 in the experiment with Tribolium confusum [11]; 31.2 in the experiment with Trogoderma granarium [12]. The FDI was 116.2 with Trogoderma granarium [13]; 149.7 in the experiment on Tribolium confusum [14]; 59 in the experiment on Tribolium confusum [15]; 105.8 in the experiment on Tribolium confusum [16]; 62.5 in experiment [17]; 14.2 in the experiment on Sitophilus granarius [18]. Moreover, the result with Aphididae was inactive.

For `COc1ccc2c(c1)OC(C)(C)C(CC(=O)O)=C2`, the FDI in experiment [1] was determined as 98.8; with Tribolium confusum [2], 86.4; in the experiment on Tribolium confusum [3], 1.8; in experiment [4] it was 23.2; in the experiment with Trogoderma granarium [5] it was 86; in the experiment with Sitophilus granarius [6], 97.5. Besides, the FDI is 70.9 in experiment [7]; 35.2 in experiment [8]; 95.7 in the experiment with Sitophilus granarius [9]; 94.1 in experiment [10]; 95.7 in the experiment with Tribolium confusum [11]; 22 with Trogoderma granarium [12]. Also, the FDI in the experiment on Trogoderma granarium [13] is recorded as 108; in the experiment with Tribolium confusum [14] it was 80.2; in the experiment on Tribolium confusum [15], -6.2; in the experiment with Tribolium confusum [16], 97.5; in experiment [17], 63.6; in the experiment on Sitophilus granarius [18], 1.8. In the experiment on Aphididae, the result was inactive.

As for `COc1ccc2c(c1)OC(C)(C)C=C2` [PROCOCENE I], the FDI in experiment [1] amounted to 164.6; in the experiment with Tribolium confusum [2], 64.1; with Tribolium confusum [3], 55.2; in experiment [4], 41.9; in the experiment with Trogoderma granarium [5], 38.3; in the experiment on Sitophilus granarius [6], 139. Besides, the FDI in [7] was determined as 73.8; in experiment [8] it was 77.8; with Sitophilus granarius [9], 83.8; in experiment [10] it was 115.7; in the experiment on Tribolium confusum [11], 83.8; in the experiment with Trogoderma granarium [12], 41.8. In addition, the FDI was 80.1 with Trogoderma granarium [13]; 119.2 with Tribolium confusum [14]; 55.1 in the experiment on Tribolium confusum [15]; 139 in the experiment on Tribolium confusum [16]; 86.8 in experiment [17]; 55.2 in the experiment with Sitophilus granarius [18]. Further, the result in the experiment on Aphididae was Active.

`COc1cc2c(cc1OC)OC(C)(C)C=C2` [PROCOCENE II]: the FDI in experiment [1] was 124.1; with Tribolium confusum [2], 97.1; with Tribolium confusum [3] it was 100; in experiment [4], 44.2; in the experiment with Trogoderma granarium [5], 100; with Sitophilus granarius [6] it was 194.2. Moreover, the FDI in experiment [7] was 71.8; in experiment [8], 32.9; in the experiment with Sitophilus granarius [9], 94.2; in experiment [10], 116; with Tribolium confusum [11] it was 94.2; with Trogoderma granarium [12] it was 98.6. The FDI worked out at 198.6 in the experiment on Trogoderma granarium [13]; 165.7 in the experiment on Tribolium confusum [14]; 68.6 with Tribolium confusum [15]; 194.2 with Tribolium confusum [16]; 91.2 in [17]; 100 in the experiment with Sitophilus granarius [18]. Also, the result with Aphididae was Active.

As to `COc1ccc2c(c1)OC(C)(C)[C@@]1(I)CC(=O)O[C@@H]21` (racemic), the FDI in [1] turned out to be 134.1; in the experiment with Tribolium confusum [2], 77.5; in the experiment on Tribolium confusum [3], 21.1; in experiment [4], 61.6; in the experiment on Trogoderma granarium [5], 79.8; in the experiment on Sitophilus granarius [6], 114.5. The FDI was found to be 81.4 in [7]; 38.3 in [8]; 93.4 with Sitophilus granarius [9]; 143 in experiment [10]; 93.4 in the experiment on Tribolium confusum [11]; 31.6 with Trogoderma granarium [12]. Further, the FDI in the experiment on Trogoderma granarium [13] is 111.4; in the experiment with Tribolium confusum [14], 94.2; with Tribolium confusum [15] it was 16.7; in the experiment with Tribolium confusum [16] it was 114.5; in [17], 95.8; in the experiment with Sitophilus granarius [18], 21.1. Further, the result in the experiment on Aphididae was inactive.

Turning to `COc1ccc2c(c1)OC(C)(C)C1=C2OC(=O)C1`, the FDI in experiment [1] amounted to 76.7; with Tribolium confusum [2], 60.3; in the experiment with Tribolium confusum [3], 19.7; in [4] it was 27.6; with Trogoderma granarium [5] it was 73.1; with Sitophilus granarius [6], 114.1. For the same compound, the FDI in experiment [7] is on record as 49.2; in experiment [8] it was 21.7; with Sitophilus granarius [9] it was 94.4; in experiment [10] it was 76.8; with Tribolium confusum [11], 94.4; with Trogoderma granarium [12], 34.5. Also, the FDI is on record as 107.6 in the experiment with Trogoderma granarium [13]; 50.6 with Tribolium confusum [14]; -6.7 with Tribolium confusum [15]; 114.1 in the experiment on Tribolium confusum [16]; 55 in [17]; 19.7 in the experiment on Sitophilus granarius [18]. The result in the experiment with Aphididae was Active.
